Data taken from BindingDB's records for doi:10.1021/jm970140s (Merck Research Laboratories, 1997).
pKi: −log10 of the molar value.

Target: Vitamin K-dependent protein C (Homo sapiens) (UniProt P04070)
Experiment: Inhibitory activity against human serine protease (act protein C )(7.5*10e6*)

Vitamin K-dependent protein C (Homo sapiens), sequence (P04070 whole entry, looked up): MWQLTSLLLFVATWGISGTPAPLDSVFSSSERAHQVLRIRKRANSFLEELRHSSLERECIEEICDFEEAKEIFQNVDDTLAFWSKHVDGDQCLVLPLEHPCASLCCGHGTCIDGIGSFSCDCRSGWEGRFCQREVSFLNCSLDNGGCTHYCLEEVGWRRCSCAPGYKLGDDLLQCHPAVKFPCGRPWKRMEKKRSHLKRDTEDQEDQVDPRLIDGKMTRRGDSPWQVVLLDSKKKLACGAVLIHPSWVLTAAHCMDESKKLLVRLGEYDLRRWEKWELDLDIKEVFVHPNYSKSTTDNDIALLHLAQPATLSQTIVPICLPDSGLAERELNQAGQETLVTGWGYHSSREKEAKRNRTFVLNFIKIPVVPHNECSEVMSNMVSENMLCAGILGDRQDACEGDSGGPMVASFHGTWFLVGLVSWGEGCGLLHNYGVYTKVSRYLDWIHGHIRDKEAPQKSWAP

pKi: 3.38
Compound: NC1CCC(CNC(=O)[C@@H]2CCCN2C(=O)[C@H](N)C(C2CCCCC2)C2CCCCC2)CC1 (stereo partly specified) [1-(2-Amino-3,3-dicyclohexyl-propionyl)-pyrrolidine-2-carboxylic acid (4-amino-cyclohexylmethyl)-amide]
